{
  "source": "patent US20100120747A1",
  "about": "“COMBINATION OF A CHOL[…] AND A COMPOUND WITH 5-HT6 RECEPTOR AFFINITY” (priority 2006, published 2010)",
  "tested_on": "adult male Lister hooded rats",
  "test": "Novel object discrimination (NOD) test, 4 h inter-trial interval",
  "assay_type": "in vivo, rat",
  "conditions": "FIG. 1; for effect in the NOD test: 4 h ITI, each amount given by itself or both amounts combined",
  "protocol": "II) Behavioural Assessment of Cognitive Effects of Compounds with 5-HT6 Receptor Affinity: Novel Object Discrimination (NOD)\nTwo separate groups of 12 adult male Lister hooded rats are tested in the NOD paradigm using 4 h inter-trial interval (ITI) delay between the familiarisation and choice trials which should ensure impaired discrimination and permit the pro-cognitive effects of the compounds to be evaluated.\nIn two separate groups of animals compound [1140] (6-chloro-N-(3-(2-(dimethylamino)ethyl)-1H-indol-5-yl)imidazo[2,1-b]thiazole-5-sulfonamide) and donepezil HCl (or vehicle) were administered on four separate occasions, at seven day intervals. The semi-randomised design for drug administration ensures that for each group, each animal receives one of the four treatment combinations once during the study: compound [1140] and donepezil HCl, compound [1140] and vehicle, donepezil HCl and vehicle, vehicle and vehicle. […] Drug pre-treatment occurred 20 min prior to the first NOD trial to ensure optimal drug plasma levels during acquisition and consolidation phases.\nTo maximise the opportunity to see a synergistic effect, the animals received one dose of donepezil HCl i.p. (0.05 mg/kg for group 1 and 0.1 mg/kg for group 2) in combination with the selected dose of compound [1140] (1 mg/kg) or the vehicle (saline containing 0.5 methylcellulose, 2 ml/kg).\nThe exact experimental protocol is outlined in detail in:\nM. V. King et al, 5-HT6 receptor antagonist reverse delay-dependent deficits in novel object discrimination by enhancing consolidation—an effect sensitive to NMDA receptor antagonism, Neuropharmacology 2004, 47, 195-204 and Woolley et al. Reversal of cholinergic-induced deficit in a rodent model of recognition memory by the selective 5-HT6 receptor antagonist, Ro 04-6790; Psychopharmacology 2003, 170, 358-367.\nThe behavioural assessment of cognitive effects of compounds with 5-HT6 receptor affinity with the novel object discrimination (NOD) test was carried out as described above.\nThe results are depicted in FIG. 1. […]",
  "note": "Where a name gives a salt, the structure may show the parent alone.",
  "data": [
    {"smiles": "CN(C)CCc1c[nH]c2ccc(NS(=O)(=O)c3c(Cl)nc4sccn34)cc12", "note": "[compound [1140], 6-chloro-N-(3-(2-(dimethylamino)ethyl)-1H-indol-5-yl)imidazo[2,1-b]thiazole-5-sulfonamide]", "values": [
      {"measurement": "effect in the NOD test", "value": "does not have any effect"}
    ]},
    {"smiles": "COc1cc2c(cc1OC)C(=O)C(CC1CCN(Cc3ccccc3)CC1)C2", "note": "(stereo not drawn) [donepezil hydrochloride]", "values": [
      {"measurement": "effect in the NOD test", "value": "does not have any effect"},
      {"measurement": "potentiation of the action of compound [1140] in the NOD test", "setting": "donepezil given with compound [1140]", "value": "potentiates the action"}
    ]}
  ]
}
